Biological target: T1, FAAH (Rattus norvegicus, UniProt P97612)
T1 sequence (P97612 1-579): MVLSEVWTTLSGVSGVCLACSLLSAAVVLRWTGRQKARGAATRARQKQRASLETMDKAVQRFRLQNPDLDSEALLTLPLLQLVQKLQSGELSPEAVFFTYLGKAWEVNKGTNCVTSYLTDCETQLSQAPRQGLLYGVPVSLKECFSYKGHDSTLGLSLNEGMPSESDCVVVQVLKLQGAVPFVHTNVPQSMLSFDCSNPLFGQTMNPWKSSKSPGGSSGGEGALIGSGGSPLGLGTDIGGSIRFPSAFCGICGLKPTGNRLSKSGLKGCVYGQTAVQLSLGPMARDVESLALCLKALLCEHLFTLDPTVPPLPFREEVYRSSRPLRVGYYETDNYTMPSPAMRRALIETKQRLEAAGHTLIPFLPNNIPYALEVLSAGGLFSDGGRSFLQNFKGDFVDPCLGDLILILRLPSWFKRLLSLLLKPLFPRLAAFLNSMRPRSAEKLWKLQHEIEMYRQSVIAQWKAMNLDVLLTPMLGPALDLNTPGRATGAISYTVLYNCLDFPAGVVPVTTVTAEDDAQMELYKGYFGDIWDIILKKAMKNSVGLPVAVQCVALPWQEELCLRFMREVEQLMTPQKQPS
Assay: WaterLOGSY NMR binding to FAAH

SMILES: CC(C(=O)O)c1ccc2c(c1)[nH]c1ccc(Cl)cc12 (racemic) [carprofen, (RS)-2-(6-chloro-9H-carbazol-2-yl)propanoic acid]
- binding to FAAH (WaterLOGSY signals) (enzyme pre-incubated with URB597): did not alter such binding
- binding to FAAH (WaterLOGSY signals) (without URB597): able to bind FAAH

From PMC3562592 (Journal of the American Chemical Society, 2012)
